Experimental data taken from patent publication US20260226493A1, “HERBICIDE RESISTANT PLANTS” (SYNGENTA CROP PROTECTION AG, priority 2023, published 2026).

Tests used:
Assay in all cases: BIO3-BIO1 mutant enzyme activity in the presence of herbicide, percentage inhibition (fluorometric DAPA assay)
Type in all cases: biochemical
Details in all cases: read-out: percentage inhibition
[1] = molecular target: T1, Arabidopsis thaliana BIO3-BIO1 (BioDA) mutants (Arabidopsis thaliana, UniProt B0F481, F348T)
T1 construct: with the predicted N-terminal mitochondrial transit peptide removed; 6xHis-tag (N); thrombin cleavage site (N); made in house; host or cells: E. coli BL21 (DE3) bioA
T1 sequence (B0F481 23-833 F348T): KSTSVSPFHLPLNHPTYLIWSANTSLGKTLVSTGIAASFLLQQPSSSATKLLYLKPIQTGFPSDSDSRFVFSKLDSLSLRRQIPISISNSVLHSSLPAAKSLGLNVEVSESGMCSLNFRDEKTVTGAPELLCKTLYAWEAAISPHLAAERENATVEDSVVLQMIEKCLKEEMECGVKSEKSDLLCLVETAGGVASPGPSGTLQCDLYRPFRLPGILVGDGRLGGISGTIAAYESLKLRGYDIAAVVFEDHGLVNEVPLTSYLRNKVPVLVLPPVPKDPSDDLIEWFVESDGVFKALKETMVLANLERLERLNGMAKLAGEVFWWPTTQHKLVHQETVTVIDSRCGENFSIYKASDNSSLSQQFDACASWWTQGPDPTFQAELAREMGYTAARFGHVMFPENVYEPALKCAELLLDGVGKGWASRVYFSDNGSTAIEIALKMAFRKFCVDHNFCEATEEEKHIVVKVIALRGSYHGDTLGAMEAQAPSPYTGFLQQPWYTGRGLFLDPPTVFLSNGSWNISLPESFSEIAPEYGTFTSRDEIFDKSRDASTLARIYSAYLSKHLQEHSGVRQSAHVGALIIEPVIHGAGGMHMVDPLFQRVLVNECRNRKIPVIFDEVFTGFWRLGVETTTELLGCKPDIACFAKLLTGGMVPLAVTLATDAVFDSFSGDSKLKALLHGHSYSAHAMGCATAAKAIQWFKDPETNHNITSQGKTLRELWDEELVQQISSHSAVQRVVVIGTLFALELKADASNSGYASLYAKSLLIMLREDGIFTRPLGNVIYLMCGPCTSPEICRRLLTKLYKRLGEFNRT
In short: (§1)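 His-tagged Arabidopsis BIO3-BIO1 mutants, expressed in E. coli and purified by IMAC and SEC, were preincubated at 50 nM with herbicide for 10 min at 20 °C in EPPS pH 8.6 with pyridoxal phosphate. Reaction with 100 μM spermidine and 20 μM KAPA ran 75 min at 20 °C; DAPA was derivatised with o-phthalaldehyde and read at ex 410/em 470 nm. […].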

[2] = molecular target: T2, Arabidopsis thaliana BIO3-BIO1 (BioDA) mutants (Arabidopsis thaliana, UniProt B0F481, P510E)
T2 construct: with the predicted N-terminal mitochondrial transit peptide removed; 6xHis-tag (N); thrombin cleavage site (N); made in house; host or cells: E. coli BL21 (DE3) bioA
T2 sequence (B0F481 23-833 P510E): as the sequence (B0F481 23-833 F348T) above, with T326F, P488E counted along it
In short: as §1

[3] = molecular target: T3, Arabidopsis thaliana BIO3-BIO1 (BioDA) mutants (Arabidopsis thaliana, UniProt B0F481, P421A)
T3 construct: with the predicted N-terminal mitochondrial transit peptide removed; 6xHis-tag (N); thrombin cleavage site (N); made in house; host or cells: E. coli BL21 (DE3) bioA
T3 sequence (B0F481 23-833 P421A): as the sequence (B0F481 23-833 F348T) above, with T326F, P399A counted along it
In short: as §1

[4] = molecular target: T4, Arabidopsis thaliana BIO3-BIO1 (BioDA) mutants (Arabidopsis thaliana, UniProt B0F481, A609M)
T4 construct: with the predicted N-terminal mitochondrial transit peptide removed; 6xHis-tag (N); thrombin cleavage site (N); made in house; host or cells: E. coli BL21 (DE3) bioA
T4 sequence (B0F481 23-833 A609M): as the sequence (B0F481 23-833 F348T) above, with T326F, A587M counted along it
In short: as §1

[5] = molecular target: T5, Arabidopsis thaliana BIO3-BIO1 (BioDA) mutants (Arabidopsis thaliana, UniProt B0F481, Y511C)
T5 construct: with the predicted N-terminal mitochondrial transit peptide removed; 6xHis-tag (N); thrombin cleavage site (N); made in house; host or cells: E. coli BL21 (DE3) bioA
T5 sequence (B0F481 23-833 Y511C): as the sequence (B0F481 23-833 F348T) above, with T326F, Y489C counted along it
In short: as §1

[6] = molecular target: T6, Arabidopsis thaliana BIO3-BIO1 (BioDA) mutants (Arabidopsis thaliana, UniProt B0F481, S509Y)
T6 construct: with the predicted N-terminal mitochondrial transit peptide removed; 6xHis-tag (N); thrombin cleavage site (N); made in house; host or cells: E. coli BL21 (DE3) bioA
T6 sequence (B0F481 23-833 S509Y): as the sequence (B0F481 23-833 F348T) above, with T326F, S487Y counted along it
In short: as §1

[7] = molecular target: T7, Arabidopsis thaliana BIO3-BIO1 (BioDA) mutants (Arabidopsis thaliana, UniProt B0F481, S509A)
T7 construct: with the predicted N-terminal mitochondrial transit peptide removed; 6xHis-tag (N); thrombin cleavage site (N); made in house; host or cells: E. coli BL21 (DE3) bioA
T7 sequence (B0F481 23-833 S509A): as the sequence (B0F481 23-833 F348T) above, with T326F, S487A counted along it
In short: as §1

[8] = molecular target: T8, Arabidopsis thaliana BIO3-BIO1 (BioDA) mutants (Arabidopsis thaliana, UniProt B0F481, S509I)
T8 construct: with the predicted N-terminal mitochondrial transit peptide removed; 6xHis-tag (N); thrombin cleavage site (N); made in house; host or cells: E. coli BL21 (DE3) bioA
T8 sequence (B0F481 23-833 S509I): as the sequence (B0F481 23-833 F348T) above, with T326F, S487I counted along it
In short: as §1

[9] = molecular target: T9, Arabidopsis thaliana BIO3-BIO1 (BioDA) mutants (Arabidopsis thaliana, UniProt B0F481, Y511E)
T9 construct: with the predicted N-terminal mitochondrial transit peptide removed; 6xHis-tag (N); thrombin cleavage site (N); made in house; host or cells: E. coli BL21 (DE3) bioA
T9 sequence (B0F481 23-833 Y511E): as the sequence (B0F481 23-833 F348T) above, with T326F, Y489E counted along it
In short: as §1

[10] = molecular target: T10, Arabidopsis thaliana BIO3-BIO1 (BioDA) mutants (Arabidopsis thaliana, UniProt B0F481, S509H)
T10 construct: with the predicted N-terminal mitochondrial transit peptide removed; 6xHis-tag (N); thrombin cleavage site (N); made in house; host or cells: E. coli BL21 (DE3) bioA
T10 sequence (B0F481 23-833 S509H): as the sequence (B0F481 23-833 F348T) above, with T326F, S487H counted along it
In short: as §1

[11] = molecular target: T11, Arabidopsis thaliana BIO3-BIO1 (BioDA) mutants (Arabidopsis thaliana, UniProt B0F481, T512R)
T11 construct: with the predicted N-terminal mitochondrial transit peptide removed; 6xHis-tag (N); thrombin cleavage site (N); made in house; host or cells: E. coli BL21 (DE3) bioA
T11 sequence (B0F481 23-833 T512R): as the sequence (B0F481 23-833 F348T) above, with T326F, T490R counted along it
In short: as §1

[12] = molecular target: T12, Arabidopsis thaliana BIO3-BIO1 (BioDA) mutants (Arabidopsis thaliana, UniProt B0F481, W392D)
T12 construct: with the predicted N-terminal mitochondrial transit peptide removed; 6xHis-tag (N); thrombin cleavage site (N); made in house; host or cells: E. coli BL21 (DE3) bioA
T12 sequence (B0F481 23-833 W392D): as the sequence (B0F481 23-833 F348T) above, with T326F, W370D counted along it
In short: as §1

CCn1c(Cn2ccc(C(F)(F)F)n2)cc(=O)c(C(=O)O)c1-c1ccc(Cl)c(Cl)c1 [Compound L, 2-(3,4-dichlorophenyl)-1-ethyl-4-oxo-6-[[3-(trifluoromethyl)pyrazol-1-yl]methyl]pyridine-3-carboxylic acid]
inhibition at 0.01 µM [1]: 1%
inhibition at 0.075 µM [1]: 3%
inhibition at 0.5 µM [1]: 7%
inhibition at 0.01 µM [2]: 0%
inhibition at 0.075 µM [2]: 11%
inhibition at 0.5 µM [2]: 59%
inhibition at 0.01 µM [3]: 15%
inhibition at 0.075 µM [3]: 16%
inhibition at 0.5 µM [3]: 21%
inhibition at 0.01 µM [4]: 3%
inhibition at 0.075 µM [4]: 17%
inhibition at 0.5 µM [4]: 19%

CCOC(=O)c1nn(-c2ccc3c(c2)OC(F)(F)C(F)(F)O3)c2cccc(C(C)=O)c2c1=O [Compound A, ethyl 5-acetyl-4-oxo-1-(2,2,3,3-tetrafluoro-1,4-benzodioxin-6-yl)cinnoline-3-carboxylate]
inhibition at 1 µM [1]: 0%
inhibition at 1 µM [2]: 26%
inhibition at 1 µM [5]: 0%
inhibition at 1 µM [6]: 3%
inhibition at 1 µM [3]: 0%
inhibition at 1 µM [7]: 0%
inhibition at 1 µM [8]: 0%
inhibition at 1 µM [9]: 0%
inhibition at 1 µM [10]: 0%
inhibition at 1 µM [11]: 82%
inhibition at 1 µM [12]: 55%
inhibition at 1 µM [4]: 3%

CCn1c(-c2ccc(Cl)c(Cl)c2)c(C(=O)O)c(=O)c2cc(F)ccc21 [Compound M, 2-(3,4-dichlorophenyl)-1-ethyl-6-fluoro-4-oxo-quinoline-3-carboxylic acid]
inhibition at 0.2 µM [1]: 15%
inhibition at 1 µM [1]: 2%
inhibition at 5 µM [1]: 7%
inhibition at 0.2 µM [2]: 0%
inhibition at 1 µM [2]: 25%
inhibition at 5 µM [2]: 61%
inhibition at 0.2 µM [5]: 16%
inhibition at 1 µM [5]: 67%
inhibition at 5 µM [5]: 92%
inhibition at 0.2 µM [6]: 28%
inhibition at 1 µM [6]: 58%
inhibition at 5 µM [6]: 85%
inhibition at 0.2 µM [3]: 15%
inhibition at 1 µM [3]: 11%
inhibition at 5 µM [3]: 17%
inhibition at 0.2 µM [7]: 0%
inhibition at 1 µM [7]: 33%
inhibition at 5 µM [7]: 81%
inhibition at 0.2 µM [8]: 30%
inhibition at 1 µM [8]: 65%
inhibition at 5 µM [8]: 92%
inhibition at 0.2 µM [9]: 29%
inhibition at 1 µM [9]: 74%
inhibition at 5 µM [9]: 95%
inhibition at 0.2 µM [10]: 23%
inhibition at 1 µM [10]: 82%
inhibition at 5 µM [10]: 98%
inhibition at 0.2 µM [11]: 81%
inhibition at 1 µM [11]: 95%
inhibition at 5 µM [11]: 99%
inhibition at 0.2 µM [12]: 14%
inhibition at 1 µM [12]: 37%
inhibition at 5 µM [12]: 81%
inhibition at 0.2 µM [4]: 5%
inhibition at 1 µM [4]: 0%
inhibition at 5 µM [4]: 11%

CCn1c(C)c(-c2ccc(F)cc2F)c(=O)c(C(=O)O)c1-c1ccc(Cl)c(Cl)c1 [Compound C, 2-(3,4-dichlorophenyl)-5-(2,4-difluorophenyl)-1-ethyl-6-methyl-4-oxo-pyridine-3-carboxylic acid]
inhibition at 0.2 µM [1]: 0%
inhibition at 1 µM [1]: 4%
inhibition at 5 µM [1]: 0%
inhibition at 0.2 µM [2]: 8%
inhibition at 1 µM [2]: 38%
inhibition at 5 µM [2]: 74%
inhibition at 0.2 µM [5]: 33%
inhibition at 1 µM [5]: 86%
inhibition at 5 µM [5]: 98%
inhibition at 0.2 µM [6]: 37%
inhibition at 1 µM [6]: 76%
inhibition at 5 µM [6]: 95%
inhibition at 0.2 µM [3]: 16%
inhibition at 1 µM [3]: 16%
inhibition at 5 µM [3]: 35%
inhibition at 0.2 µM [7]: 0%
inhibition at 1 µM [7]: 63%
inhibition at 5 µM [7]: 95%
inhibition at 0.2 µM [8]: 38%
inhibition at 1 µM [8]: 84%
inhibition at 5 µM [8]: 99%
inhibition at 0.2 µM [9]: 27%
inhibition at 1 µM [9]: 74%
inhibition at 5 µM [9]: 96%
inhibition at 0.2 µM [10]: 20%
inhibition at 1 µM [10]: 75%
inhibition at 5 µM [10]: 98%
inhibition at 0.2 µM [11]: 74%
inhibition at 1 µM [11]: 95%
inhibition at 5 µM [11]: 99%
inhibition at 0.2 µM [12]: 46%
inhibition at 1 µM [12]: 59%
inhibition at 5 µM [12]: 91%
inhibition at 0.2 µM [4]: 9%
inhibition at 1 µM [4]: 5%
inhibition at 5 µM [4]: 13%
